From patent publication US20250333407A1, “Compounds and Their Use for Treatment of Hemoglobinopathies” (Bristol-Myers Squibb Company, priority 2024, published 2025)

Experiments:
Assay type in all cases: cell-based
[1] = molecular target: T1, WIZ (Homo sapiens, UniProt O95785+Q96SW2); test: HUDEP-2 WIZ HiBiT degradation assay; details: HiBiT-tagged WIZ degradation in HUDEP-2 cells, 24 hours of treatment; read-out: WIZ EC50
T1 construct: HUDEP-2 cells engineered to express a HiBiT tag in either the WIZ (Widely interspaced zinc finger) or ZBTB7A
T1 sequence (O95785 whole entry): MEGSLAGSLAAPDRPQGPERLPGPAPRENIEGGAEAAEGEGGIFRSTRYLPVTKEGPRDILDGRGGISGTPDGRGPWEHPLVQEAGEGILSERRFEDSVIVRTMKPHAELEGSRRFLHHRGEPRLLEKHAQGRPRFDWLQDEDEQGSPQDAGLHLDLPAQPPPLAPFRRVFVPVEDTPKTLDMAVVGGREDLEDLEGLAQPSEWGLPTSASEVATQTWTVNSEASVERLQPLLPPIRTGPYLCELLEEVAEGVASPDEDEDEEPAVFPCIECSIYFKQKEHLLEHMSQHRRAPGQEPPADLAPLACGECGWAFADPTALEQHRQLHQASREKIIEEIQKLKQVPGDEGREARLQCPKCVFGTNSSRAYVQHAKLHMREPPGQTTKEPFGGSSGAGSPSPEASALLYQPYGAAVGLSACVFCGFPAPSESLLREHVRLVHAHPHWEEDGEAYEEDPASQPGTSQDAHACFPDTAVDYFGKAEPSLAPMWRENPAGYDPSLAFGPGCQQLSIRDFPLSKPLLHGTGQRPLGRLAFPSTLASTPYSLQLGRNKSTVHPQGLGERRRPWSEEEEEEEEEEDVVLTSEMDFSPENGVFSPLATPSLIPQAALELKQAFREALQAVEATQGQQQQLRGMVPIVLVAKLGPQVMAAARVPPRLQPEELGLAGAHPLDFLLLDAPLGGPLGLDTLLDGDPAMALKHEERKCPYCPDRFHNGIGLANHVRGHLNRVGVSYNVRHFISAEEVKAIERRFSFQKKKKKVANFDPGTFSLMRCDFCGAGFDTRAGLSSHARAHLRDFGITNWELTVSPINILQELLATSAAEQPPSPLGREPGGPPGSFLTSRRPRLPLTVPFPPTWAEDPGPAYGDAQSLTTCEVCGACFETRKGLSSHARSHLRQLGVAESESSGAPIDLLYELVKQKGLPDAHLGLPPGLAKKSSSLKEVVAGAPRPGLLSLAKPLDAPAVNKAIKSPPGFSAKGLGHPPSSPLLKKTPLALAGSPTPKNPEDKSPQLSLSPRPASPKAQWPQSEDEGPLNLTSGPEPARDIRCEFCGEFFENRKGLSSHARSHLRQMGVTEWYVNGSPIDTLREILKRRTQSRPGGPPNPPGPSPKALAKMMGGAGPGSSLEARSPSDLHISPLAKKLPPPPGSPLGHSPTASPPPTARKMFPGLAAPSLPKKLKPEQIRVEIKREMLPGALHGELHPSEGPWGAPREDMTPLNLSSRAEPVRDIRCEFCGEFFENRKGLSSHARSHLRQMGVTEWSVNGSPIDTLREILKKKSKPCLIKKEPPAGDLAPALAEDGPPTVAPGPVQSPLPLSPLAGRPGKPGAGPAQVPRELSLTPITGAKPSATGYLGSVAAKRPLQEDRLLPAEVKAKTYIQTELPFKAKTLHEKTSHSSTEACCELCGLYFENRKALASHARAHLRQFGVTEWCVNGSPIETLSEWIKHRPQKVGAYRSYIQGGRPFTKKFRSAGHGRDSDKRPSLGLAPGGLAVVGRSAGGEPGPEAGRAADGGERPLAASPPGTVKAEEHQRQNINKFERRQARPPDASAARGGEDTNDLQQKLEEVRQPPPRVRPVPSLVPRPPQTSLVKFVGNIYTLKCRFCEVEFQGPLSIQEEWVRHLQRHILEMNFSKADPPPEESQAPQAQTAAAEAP
T1 sequence (Q96SW2 whole entry): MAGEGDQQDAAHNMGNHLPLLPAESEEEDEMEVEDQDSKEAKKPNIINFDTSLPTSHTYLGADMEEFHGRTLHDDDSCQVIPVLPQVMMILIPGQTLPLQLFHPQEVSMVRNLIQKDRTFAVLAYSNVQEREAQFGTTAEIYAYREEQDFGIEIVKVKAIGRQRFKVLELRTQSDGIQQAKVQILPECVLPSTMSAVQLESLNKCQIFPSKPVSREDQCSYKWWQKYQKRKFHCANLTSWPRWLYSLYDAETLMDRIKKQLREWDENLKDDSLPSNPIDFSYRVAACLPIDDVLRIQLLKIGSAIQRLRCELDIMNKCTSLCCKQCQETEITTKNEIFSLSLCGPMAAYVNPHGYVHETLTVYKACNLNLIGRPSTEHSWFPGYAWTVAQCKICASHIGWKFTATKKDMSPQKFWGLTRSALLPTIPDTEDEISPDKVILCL
T1 sequence (Q16531 whole entry partner): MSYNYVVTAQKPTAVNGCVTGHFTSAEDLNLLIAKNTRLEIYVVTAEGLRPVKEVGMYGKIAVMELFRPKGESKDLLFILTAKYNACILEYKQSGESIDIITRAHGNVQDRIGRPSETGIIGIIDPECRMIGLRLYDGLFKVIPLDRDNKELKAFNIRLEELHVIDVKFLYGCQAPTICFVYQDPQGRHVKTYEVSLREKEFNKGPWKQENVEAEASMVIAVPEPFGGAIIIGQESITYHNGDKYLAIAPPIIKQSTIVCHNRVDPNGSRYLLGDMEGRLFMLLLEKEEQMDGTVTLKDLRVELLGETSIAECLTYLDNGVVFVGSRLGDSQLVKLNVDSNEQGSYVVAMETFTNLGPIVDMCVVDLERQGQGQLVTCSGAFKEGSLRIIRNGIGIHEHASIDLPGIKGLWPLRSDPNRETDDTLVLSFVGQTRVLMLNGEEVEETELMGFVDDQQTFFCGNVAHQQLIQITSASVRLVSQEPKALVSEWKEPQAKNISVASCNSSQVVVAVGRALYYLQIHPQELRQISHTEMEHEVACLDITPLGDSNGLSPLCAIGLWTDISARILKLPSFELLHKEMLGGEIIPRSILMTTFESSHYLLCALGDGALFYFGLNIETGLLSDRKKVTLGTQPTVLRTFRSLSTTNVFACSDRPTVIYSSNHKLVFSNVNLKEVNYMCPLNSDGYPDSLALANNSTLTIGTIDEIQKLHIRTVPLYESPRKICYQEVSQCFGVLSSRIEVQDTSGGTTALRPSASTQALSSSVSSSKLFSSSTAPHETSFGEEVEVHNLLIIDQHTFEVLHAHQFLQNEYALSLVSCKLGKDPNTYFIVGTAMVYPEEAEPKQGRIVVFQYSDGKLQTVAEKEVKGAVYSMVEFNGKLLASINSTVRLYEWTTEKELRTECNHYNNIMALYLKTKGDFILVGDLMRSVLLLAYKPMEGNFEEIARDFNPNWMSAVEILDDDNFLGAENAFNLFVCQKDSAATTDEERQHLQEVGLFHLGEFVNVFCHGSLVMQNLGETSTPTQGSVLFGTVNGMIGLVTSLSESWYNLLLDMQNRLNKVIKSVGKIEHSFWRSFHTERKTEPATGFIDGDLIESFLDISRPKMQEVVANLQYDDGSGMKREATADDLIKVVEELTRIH
How it was run: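 HiBiT-tagged HUDEP-2 cells at 1.0×10^6 cells/ml in SFEM II with SCF, EPO, dexamethasone and doxycycline, treated 24 h at 37 °C with a 10-point series ([…]). Luminescence after HiBiT lytic detection, normalized to DMSO; EC50 and Y-min from fitted curves.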

[2] = molecular target: T2, ZBTB7A (Homo sapiens, UniProt O95365+Q96SW2); test: HUDEP-2 ZBTB7A HiBiT degradation assay; details: HiBiT-tagged ZBTB7A degradation in HUDEP-2 cells, 24 hours of treatment; read-out: ZBTB7A EC50
T2 construct: HUDEP-2 cells engineered to express a HiBiT tag in either the WIZ (Widely interspaced zinc finger) or ZBTB7A
T2 sequence (O95365 whole entry): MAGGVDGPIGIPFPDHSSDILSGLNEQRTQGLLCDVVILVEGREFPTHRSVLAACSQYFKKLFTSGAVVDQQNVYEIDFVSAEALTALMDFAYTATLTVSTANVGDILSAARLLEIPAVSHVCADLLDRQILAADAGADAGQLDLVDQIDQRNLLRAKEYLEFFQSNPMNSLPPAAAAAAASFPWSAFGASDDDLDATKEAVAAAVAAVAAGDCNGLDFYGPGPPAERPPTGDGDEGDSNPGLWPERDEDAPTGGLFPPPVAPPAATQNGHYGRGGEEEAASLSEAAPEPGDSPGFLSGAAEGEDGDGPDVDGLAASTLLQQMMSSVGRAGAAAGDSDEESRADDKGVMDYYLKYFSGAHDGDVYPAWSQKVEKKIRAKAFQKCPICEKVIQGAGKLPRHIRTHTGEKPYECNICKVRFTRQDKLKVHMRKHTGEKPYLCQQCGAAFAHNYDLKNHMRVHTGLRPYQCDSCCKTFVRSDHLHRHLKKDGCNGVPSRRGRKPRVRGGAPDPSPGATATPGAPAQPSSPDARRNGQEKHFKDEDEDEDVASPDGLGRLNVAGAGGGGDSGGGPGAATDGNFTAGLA
T2 sequence (Q96SW2 whole entry): as the sequence (Q96SW2 whole entry) above
T2 sequence (Q16531 whole entry partner): as the sequence (Q16531 whole entry partner) above
How it was run: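 HiBiT-tagged HUDEP-2 cells were pre-cultured 48 h in IMDM with EPO, SCF, doxycycline and 5% human plasma, then exposed to compounds at 1.0×10^6 cells/ml for 24 h at 37 °C. Nano-Glo HiBiT lytic luminescence, normalised to DMSO over 10 concentrations, gave EC50 and Y-min.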

[3] = test system: HbF; test: HbF HiBiT induction assay in HUDEP-2 cells; details: HUDEP-2 cells with HiBiT tag in HBG1/2, 72 hours of treatment; area under the dose response curve, higher AUC = greater HbF induction
How it was run: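 HUDEP-2 cells carrying a HiBiT tag on HBG1/2 were exposed to compounds for 72 h at 37° C, 5% CO2, in IMDM with EPO, hSCF, DOX, transferrin, insulin, heparin and 5% human plasma. HiBiT luminescence was read after lytic detection; HbF induction is expressed as dose-response AUC, alongside EC50 and Ymax.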

DC50 [1] [nM]	DC50 [2] [nM]	Compound	HBF AUC [3]
2	3	CO[C@H]1CC[C@@H](c2cc3c(cc2Nc2cccc4c2C(=O)N(C2CCC(=O)NC2=O)C4=O)N(C)C(=O)CC3)CC1 (stereo partly drawn) [Compound 92, 2-(2,6-dioxopiperidin-3-yl)-4-((6-((1s,4s)-4-methoxycyclohexyl)-1-methyl-2-oxo-1,2,3,4-tetrahydroquinolin-7-yl)amino)isoindoline-1,3-dione]	+ (+ = 15 ≤ AUC < 100)
11	19	COc1cc(-c2cc3c(cc2Nc2cccc4c2C(=O)N([C@H]2CCC(=O)NC2=O)C4=O)N(C)C(=O)[C@@H](C)O3)c(F)cn1 [Compound 30, 2-((S)-2,6-dioxopiperidin-3-yl)-4-(((R)-7-(5-fluoro-2-methoxypyridin-4-yl)-2,4-dimethyl-3-oxo-3,4-dihydro-2H-benzo[b][1,4]oxazin-6-yl)amino)isoindoline-1,3-dione]	++ (++ = 100 ≤ AUC < 150)
16	14	CC(=O)N1CCCC(c2cc3c(cc2Nc2cccc4c2C(=O)N([C@H]2CCC(=O)NC2=O)C4=O)N(C)C(=O)CO3)C1 (stereo partly drawn) [Compound 63, 4-((7-(1-acetylpiperidin-3-yl)-4-methyl-3-oxo-3,4-dihydro-2H-benzo[b][1,4]oxazin-6-yl)amino)-2-((S)-2,6-dioxopiperidin-3-yl)isoindoline-1,3-dione]	++ (++ = 100 ≤ AUC < 150)
8	14	CCO[C@H]1CC[C@H](c2cc3c(cc2Nc2cccc4c2C(=O)N([C@@H]2CCC(=O)NC2=O)C4=O)N(C)C(=O)[C@@H](C)O3)CC1 [Compound 54, 2-((R)-2,6-dioxopiperidin-3-yl)-4-(((R)-7-((1r,4R)-4-ethoxycyclohexyl)-2,4-dimethyl-3-oxo-3,4-dihydro-2H-benzo[b][1,4]oxazin-6-yl)amino)isoindoline-1,3-dione]	++ (++ = 100 ≤ AUC < 150)
41	96	COc1nccc(-c2cc3oc(=O)n(C)c3cc2Nc2cccc3c2C(=O)N(C2CCC(=O)NC2=O)C3=O)c1F (stereo not drawn) [Compound 65, 2-(2,6-dioxopiperidin-3-yl)-4-((6-(3-fluoro-2-methoxypyridin-4-yl)-3-methyl-2-oxo-2,3-dihydrobenzo[d]oxazol-5-yl)amino)isoindoline-1,3-dione]	+ (+ = 15 ≤ AUC < 100)
14	26	Cc1cc(-c2cc3c(cc2Nc2cccc4c2C(=O)N([C@H]2CCC(=O)NC2=O)C4=O)N(C)C(=O)[C@@H](C)O3)cc(C)n1 [Compound 24, 4-(((R)-7-(2,6-dimethylpyridin-4-yl)-2,4-dimethyl-3-oxo-3,4-dihydro-2H-benzo[b][1,4]oxazin-6-yl)amino)-2-((S)-2,6-dioxopiperidin-3-yl)isoindoline-1,3-dione]	+++ (+++ = AUC ≥ 150)
11	11	Cc1cc(-c2cc3c(cc2Nc2cccc4c2C(=O)N([C@H]2CCC(=O)NC2=O)C4=O)N(C)C(=O)CO3)ccn1 [Compound 18, (S)-2-(2,6-dioxopiperidin-3-yl)-4-((4-methyl-7-(2-methylpyridin-4-yl)-3-oxo-3,4-dihydro-2H-benzo[b][1,4]oxazin-6-yl)amino)isoindoline-1,3-dione]	+++ (+++ = AUC ≥ 150)
11	11	COc1nccc(-c2cc3c(cc2Nc2cccc4c2C(=O)N([C@H]2CCC(=O)NC2=O)C4=O)N(C)C(=O)CO3)c1F [Compound 34, (S)-2-(2,6-dioxopiperidin-3-yl)-4-((7-(3-fluoro-2-methoxypyridin-4-yl)-4-methyl-3-oxo-3,4-dihydro-2H-benzo[b][1,4]oxazin-6-yl)amino)isoindoline-1,3-dione]	+++ (+++ = AUC ≥ 150)
15	24	Cc1cncc(-c2cc3c(cc2Nc2cccc4c2C(=O)N([C@H]2CCC(=O)NC2=O)C4=O)N(C)C(=O)[C@H](C)O3)c1 [Compound 43, 4-(((S)-2,4-dimethyl-7-(5-methylpyridin-3-yl)-3-oxo-3,4-dihydro-2H-benzo[b][1,4]oxazin-6-yl)amino)-2-((S)-2,6-dioxopiperidin-3-yl)isoindoline-1,3-dione]	++ (++ = 100 ≤ AUC < 150)
43	49	Cc1cc(-c2cc3c(cc2Nc2cccc4c2C(=O)N([C@H]2CCC(=O)NC2=O)C4=O)N(C)C(=O)CO3)cc(C(F)F)n1 [Compound 47, (S)-4-((7-(2-(difluoromethyl)-6-methylpyridin-4-yl)-4-methyl-3-oxo-3,4-dihydro-2H-benzo[b][1,4]oxazin-6-yl)amino)-2-(2,6-dioxopiperidin-3-yl)isoindoline-1,3-dione]	+++ (+++ = AUC ≥ 150)
11	13	Cc1cc(-c2cc3c(cc2Nc2cccc4c2C(=O)N(C2CCC(=O)NC2=O)C4=O)N(C)C(=O)CC3C)ccn1 (stereo not drawn) [Compound 96, 4-((1,4-dimethyl-6-(2-methylpyridin-4-yl)-2-oxo-1,2,3,4-tetrahydroquinolin-7-yl)amino)-2-(2,6-dioxopiperidin-3-yl)isoindoline-1,3-dione]	++ (++ = 100 ≤ AUC < 150)
15	188	CNc1cc(-c2cc3c(cc2Nc2cccc4c2C(=O)N(C2CCC(=O)NC2=O)C4=O)N(C)C(=O)CO3)cc(C)n1 (stereo not drawn) [Compound 66, 2-(2,6-dioxopiperidin-3-yl)-4-((4-methyl-7-(2-methyl-6-(methylamino)pyridin-4-yl)-3-oxo-3,4-dihydro-2H-benzo[b][1,4]oxazin-6-yl)amino)isoindoline-1,3-dione]	++ (++ = 100 ≤ AUC < 150)
7	13	Cc1ccc(-c2cc3c(cc2Nc2cccc4c2C(=O)N([C@H]2CCC(=O)NC2=O)C4=O)N(C)C(=O)CO3)c(F)n1 [Compound 37, (S)-2-(2,6-dioxopiperidin-3-yl)-4-((7-(2-fluoro-6-methylpyridin-3-yl)-4-methyl-3-oxo-3,4-dihydro-2H-benzo[b][1,4]oxazin-6-yl)amino)isoindoline-1,3-dione]	+ (+ = 15 ≤ AUC < 100)
20	43	CCN1C(=O)COc2cc(-c3cc(C)nc(C)c3)c(Nc3cccc4c3C(=O)N(C3CCC(=O)NC3=O)C4=O)cc21 (stereo not drawn) [Compound 56, 4-((7-(2,6-dimethylpyridin-4-yl)-4-ethyl-3-oxo-3,4-dihydro-2H-benzo[b][1,4]oxazin-6-yl)amino)-2-(2,6-dioxopiperidin-3-yl)isoindoline-1,3-dione]	++ (++ = 100 ≤ AUC < 150)
4	15	CN1C(=O)CCc2cc(C3CCN(C(=O)C4CC4)CC3)c(Nc3cccc4c3C(=O)N(C3CCC(=O)NC3=O)C4=O)cc21 (stereo not drawn) [Compound 93, 4-((6-(1-(cyclopropanecarbonyl)piperidin-4-yl)-1-methyl-2-oxo-1,2,3,4-tetrahydroquinolin-7-yl)amino)-2-(2,6-dioxopiperidin-3-yl)isoindoline-1,3-dione]	++ (++ = 100 ≤ AUC < 150)
17	19	Cc1cc(-c2cc3c(cc2Nc2cccc4c2C(=O)N(C2CCC(=O)NC2=O)C4=O)N(C)C(=O)OC3)cc(C)n1 (stereo not drawn) [Compound 62, 4-((6-(2,6-dimethylpyridin-4-yl)-1-methyl-2-oxo-1,4-dihydro-2H-benzo[d][1,3]oxazin-7-yl)amino)-2-(2,6-dioxopiperidin-3-yl)isoindoline-1,3-dione]	++ (++ = 100 ≤ AUC < 150)
29	38	Cc1cc(-c2c(Nc3cccc4c3C(=O)N(C3CCC(=O)NC3=O)C4=O)cc3c(c2F)OCC(=O)N3C)ccn1 (stereo not drawn) [Compound 80, 2-(2,6-dioxopiperidin-3-yl)-4-((8-fluoro-4-methyl-7-(2-methylpyridin-4-yl)-3-oxo-3,4-dihydro-2H-benzo[b][1,4]oxazin-6-yl)amino)isoindoline-1,3-dione]	++ (++ = 100 ≤ AUC < 150)
37	75	CC(=O)N1CCC(c2cc3c(cc2Nc2cccc4c2C(=O)N([C@H]2CCC(=O)NC2=O)C4=O)N(C)C(=O)OC3C)CC1 (stereo partly drawn) [Compound 75, 4-((6-(1-acetylpiperidin-4-yl)-1,4-dimethyl-2-oxo-1,4-dihydro-2H-benzo[d][1,3]oxazin-7-yl)amino)-2-((S)-2,6-dioxopiperidin-3-yl)isoindoline-1,3-dione]	++ (++ = 100 ≤ AUC < 150)
18	28	Cc1cc(-c2cc3c(cc2Nc2cccc4c2C(=O)N(C2CCC(=O)NC2=O)C4=O)N(C)S(=O)(=O)CC3)ccn1 (stereo not drawn) [Compound 50, 2-(2,6-dioxopiperidin-3-yl)-4-((1-methyl-6-(2-methylpyridin-4-yl)-2,2-dioxido-3,4-dihydro-1H-benzo[c][1,2]thiazin-7-yl)amino)isoindoline-1,3-dione]	+ (+ = 15 ≤ AUC < 100)
